Drawing on patent US9676784B2, “Fused imidazolyl derivatives, their preparation and use as medicaments” (LABORATORIOS DEL DR. ESTEVE S.A., priority 2013, dated 2017), this text covers Ki for 29 molecules.

Structures can show the parent of a compound that is named as a salt.

The target in this assay is σ1-receptor (Cavia porcellus, UniProt Q60492). Nature of the assay: Binding assay for the σ1-receptor, [3H]-(+)-pentazocine, guinea pig brain membranes.
σ1-receptor, sequence (Q60492 whole entry): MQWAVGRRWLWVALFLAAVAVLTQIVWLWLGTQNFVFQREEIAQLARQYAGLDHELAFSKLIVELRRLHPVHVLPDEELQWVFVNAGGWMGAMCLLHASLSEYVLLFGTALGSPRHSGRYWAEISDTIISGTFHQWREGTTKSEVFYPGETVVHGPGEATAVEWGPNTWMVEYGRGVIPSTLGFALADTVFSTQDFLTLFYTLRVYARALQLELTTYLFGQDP
Description: Guinea pig brains were homogenized in 10 vols. (w/v) of Tris-HCl 50 mM 0.32 M sucrose, pH 7.4, with a Kinematica Polytron PT 3000 at 15000 r.p.m. for 30 s. The homogenate was centrifuged at 1000 g for 10 min at 4° C. and the supernatants collected and centrifuged again at 48000 g for 15 min at 4° C. The pellet was resuspended in 10 volumes of Tris-HCl buffer (50 mM, pH 7.4), incubated at 37° C. for 30 min, and centrifuged at 48000 g for 20 min at 4° C. Following this, the pellet was re-suspended in fresh Tris-HCl buffer (50 mM, pH 7.4) and stored on ice until use.
The radioligand used was [^3H]-(+)-pentazocine at 5.0 nM and the final volume was 200 μl. The incubation was initiated with the addition of 100 μl of membrane at a final tissue concentration of approximately 5 mg tissue net weight/mL and the incubation time was 150 m. at 37° C. After incubation, the membranes were collected onto pretreated glass fiber filterplate (MultiScreen-FC, Millipore), with polyethylenimine 0.1%. […] Nonspecific binding was determined with 1 μM haloperidol.
Molecule `CCNC(=O)Nc1ncc2n1CCCN(CC1CCCCC1)C2` [Example 1, 1-(8-(Cyclohexylmethyl)-6,7,8,9-tetrahydro-5H-imidazo[1,5-a][1,4]diazepin-3-yl)-3-ethylurea] came in with a Ki of 179 nM. Molecule `CCNC(=O)Nc1ncc2n1CCN(CC1CCCCC1)C2` [Example 2, 1-(7-(Cyclohexylmethyl)-5,6,7,8-tetrahydroimidazo[1,5-a]pyrazin-3-yl)-3-ethylurea] gave a Ki of 106 nM. `CCCNC(=O)Nc1ncc2n1CCN(CC1CCCCC1)C2` [Example 3, 1-(7-(Cyclohexylmethyl)-5,6,7,8-tetrahydroimidazo[1,5-a]pyrazin-3-yl)-3-propylurea] came in with an inhibition constant Ki of 71 nM. For `c1ccc(Nc2ncc3n2CCN(CC2CCCCC2)C3)cc1` [Example 5, 7-(Cyclohexylmethyl)-N-phenyl-5,6,7,8-tetrahydroimidazo[1,5-a]pyrazin-3-amine] the value was 8.2 nM; for `Fc1cc(F)cc(Nc2ncc3n2CCN(CC2CCCCC2)C3)c1` [Example 6, 7-(cyclohexylmethyl)-N-(3,5-difluorophenyl)-5,6,7,8-tetrahydroimidazo[1,5-a]pyrazin-3-amine], 12 nM.

`COc1cccc(Nc2ncc3n2CCN(CC2CCCCC2)C3)c1` [Example 7, 7-(cyclohexylmethyl)-N-(3-methoxyphenyl)-5,6,7,8-tetrahydroimidazo[1,5-a]pyrazin-3-amine] gave an inhibitory constant (Ki) of 13 nM. This Ki and that of the molecule before are within 1.5-fold of each other.

`Fc1ccc(Nc2ncc3n2CCN(CC2CCCCC2)C3)cc1` [Example 8, 7-(cyclohexylmethyl)-N-(4-fluorophenyl)-5,6,7,8-tetrahydroimidazo[1,5-a]pyrazin-3-amine] had a Ki of 8 nM.

For `Fc1c(Cl)cccc1Nc1ncc2n1CCN(Cc1ccccc1)C2` [Example 9, 7-benzyl-N-(3-chloro-2-fluorophenyl)-5,6,7,8-tetrahydroimidazo[1,5-a]pyrazin-3-amine], the affinity, expressed as Ki, was 232 nM. As for `c1ccc(Nc2ncc3n2CCN(CC2CCOCC2)C3)cc1` [Example 12, N-phenyl-7-((tetrahydro-2H-pyran-4-yl)methyl)-5,6,7,8-tetrahydroimidazo[1,5-a]pyrazin-3-amine], the inhibition constant Ki came to 258 nM. The Ki values of the last two molecules are within 1.5-fold of each other. For `COc1cccc(Nc2ncc3n2CCCN(CC2CCOCC2)C3)c1` [Example 15, N-(3-methoxyphenyl)-8-((tetrahydro-2H-pyran-4-yl)methyl)-6,7,8,9-tetrahydro-5H-imidazo[1,5-a][1,4]diazepin-3-amine] the value was 266 nM. With `Fc1ccc(Nc2ncc3n2CCCN(CC2CCOCC2)C3)cc1` [Example 16, N-(4-fluorophenyl)-8-((tetrahydro-2H-pyran-4-yl)methyl)-6,7,8,9-tetrahydro-5H-imidazo[1,5-a][1,4]diazepin-3-amine], the Ki came to 175 nM. For `Fc1c(Cl)cccc1Nc1ncc2n1CCCN(CC1CCOCC1)C2` [Example 17, N-(3-chloro-2-fluorophenyl)-8-((tetrahydro-2H-pyran-4-yl)methyl)-6,7,8,9-tetrahydro-5H-imidazo[1,5-a][1,4]diazepin-3-amine] the value was 14 nM. For `Fc1cc(F)cc(Nc2ncc3n2CCCN(CC2CCOCC2)C3)c1` [Example 18, N-(3,5-difluorophenyl)-8-((tetrahydro-2H-pyran-4-yl)methyl)-6,7,8,9-tetrahydro-5H-imidazo[1,5-a][1,4]diazepin-3-amine] the value was 26 nM; for `Oc1cccc(Nc2ncc3n2CCN(Cc2ccccc2)C3)c1` [Example 19, 3-(7-benzyl-5,6,7,8-tetrahydroimidazo[1,5-a]pyrazin-3-ylamino)phenol], 63 nM; for `Fc1ccc(CN2CCn3c(cnc3Nc3ccc(F)cn3)C2)cc1` [Example 20, 7-(4-fluorobenzyl)-N-(5-fluoropyridin-2-yl)-5,6,7,8-tetrahydroimidazo[1,5-a]pyrazin-3-amine], 67 nM.

Molecule `Fc1ccc(Nc2ncc3n2CCN(Cc2ccccc2)C3)cc1` [Example 21, 7-benzyl-N-(4-fluorophenyl)-5,6,7,8-tetrahydroimidazo[1,5-a]pyrazin-3-amine] returned a Ki of 44 nM. As for `CCC(=O)N(c1cccc(O)c1)c1ncc2n1CCN(Cc1ccccc1)C2` [Example 24, N-(7-benzyl-5,6,7,8-tetrahydroimidazo[1,5-a]pyrazin-3-yl)-N-(3-hydroxyphenyl)propionamide], the figure is 124 nM; as for `CCC(=O)N(c1cccc(O)c1)c1ncc2n1CCN(CCc1ccccc1)C2` [Example 25, N-(3-hydroxyphenyl)-N-(7-phenethyl-5,6,7,8-tetrahydroimidazo[1,5-a]pyrazin-3-yl)propionamide], 358 nM.

`c1ccc(CNc2ncc3n2CCN(CC2CCCCC2)C3)cc1` [Example 27, N-Benzyl-7-(cyclohexylmethyl)-5,6,7,8-tetrahydroimidazo[1,5-a]pyrazin-3-amine] had a Ki of 38 nM. For `c1ccc(Cc2ncc3n2CCN(CC2CCCCC2)C3)cc1` [Example 28, 3-Benzyl-7-(cyclohexylmethyl)-5,6,7,8-tetrahydroimidazo[1,5-a]pyrazine trifluoroacetate] the value was 39 nM; for `Fc1ccc(Cc2ncc3n2CCN(CC2CCCCC2)C3)cc1` [Example 30, 7-(cyclohexylmethyl)-3-(4-fluorobenzyl)-5,6,7,8-tetrahydroimidazo[1,5-a]pyrazine hydrochloride], 22 nM.

As to `c1ccc(CCN2CCn3c(cnc3Nc3ccccc3)C2)cc1` [Example 31, 7-Phenethyl-N-phenyl-5,6,7,8-tetrahydroimidazo[1,5-a]pyrazin-3-amine], the Ki was 101 nM. Against the preceding molecule, the Ki is about 4.6-fold higher.

Turning to `Oc1cccc(Nc2ncc3n2CCN(CCc2ccccc2)C3)c1` [Example 34, 3-(7-phenethyl-5,6,7,8-tetrahydroimidazo[1,5-a]pyrazin-3-ylamino)phenol], the affinity, expressed as Ki, was 168 nM. Compared with the last molecule, the Ki is about 1.7-fold higher. As for `Fc1ccc(Nc2ncc3n2CCN(Cc2ccc(F)cc2F)C3)cc1` [Example 35, 7-(2,4-difluorobenzyl)-N-(4-fluorophenyl)-5,6,7,8-tetrahydroimidazo[1,5-a]pyrazin-3-amine], the figure is 37 nM. As for `Fc1ccc(Nc2ncc3n2CCN(CC2CCC(F)(F)CC2)C3)cc1` [Example 36, 7-((4,4-difluorocyclohexyl)methyl)-N-(4-fluorophenyl)-5,6,7,8-tetrahydroimidazo[1,5-a]pyrazin-3-amine], the figure is 21 nM; as for `Fc1ccc(Nc2ncc3n2CCN(Cc2ccc(F)cn2)C3)cc1` [Example 37, N-(4-fluorophenyl)-7-((5-fluoropyridin-2-yl)methyl)-5,6,7,8-tetrahydroimidazo[1,5-a]pyrazin-3-amine], 293 nM; as for `Fc1ccc(Nc2ncc3n2CCN(Cc2ccc(F)nc2)C3)cc1` [Example 38, N-(4-fluorophenyl)-7-((6-fluoropyridin-3-yl)methyl)-5,6,7,8-tetrahydroimidazo[1,5-a]pyrazin-3-amine], 311 nM.

As to `COc1ccc(CN2CCn3c(cnc3Nc3ccc(F)cc3)C2)cn1` [Example 39, N-(4-fluorophenyl)-7-((6-methoxypyridin-3-yl)methyl)-5,6,7,8-tetrahydroimidazo[1,5-a]pyrazin-3-amine], the inhibition constant Ki came to 373 nM.

For the molecule `Fc1ccc(Nc2ncc3n2CCN(C2CCCCC2)C3)cc1` [Example 40, 7-cyclohexyl-N-(4-fluorophenyl)-5,6,7,8-tetrahydroimidazo[1,5-a]pyrazin-3-amine], the Ki turned out to be 68 nM.
